Where two headings read alike, the source gives them in different places. Blank lines part the entries; values can stand above or below the molecule they belong to.
Legend:
[1] = biological target: T1, FKBP12^F36V-GFP (Homo sapiens, UniProt P62942, F37V); experiment: Immunoblot of EWS502 FKBP12F36V-GFP cells; assay type: cell-based; details: 24 h
T1 construct: expressed in transfected cells; host or cells: EWS502 (lentiviral pLEX_305-dTAG-GFP)
Method: To generate 293T^WT FKBP12^F36V-KRAS^G12V and 293T^VHL−/− FKBP12^F36V-KRAS^G12V cells, concentrated lentiviral supernatants[6] were applied to 293T^WT and 293T^VHL−/− cells[33] in the presence of 4 µg mL^−1 polybrene and transduced cell lines were selected with 2 µg mL^−1 puromycin. To generate EWS502 FKBP12^F36V-GFP cells, EWS502 cells were transduced with pLEX_305-dTAG-GFP lentiviral supernatant and selected with 1 µg mL^−1 puromycin. To generate EWS502 FKBP12^F36V-EWS/FLI; EWS/FLI^−/− cells, EWS502 cells were co-transduced with pLEX_305-dTAG-EWS/FLI and lentiCRISPR v2-Blast-sgFLI_Ex9 lentiviral supernatants. Cells were then selected with both 1 µg mL^−1 puromycin (pLEX_305-dTAG-EWS/FLI) and 5 µg mL^−1 blasticidin (lentiCRISPR v2-Blast-sgFLI_Ex9). Knockout of endogenous EWS/FLI and the expression of exogenous FKBP12^F36V-EWS/FLI were confirmed by immunoblot and pooled transduced cell populations were employed for this study. […]
PATU-8902 LACZ-FKBP12^F36V and FKBP12^F36V-KRAS^G12V; KRAS^−/− cells and 293T cells were lysed with RIPA buffer supplemented with cOmplete protease inhibitors (Roche), PhosSTOP phosphatase inhibitors (Roche), and 0.1% benzonase (Novagen). […] Membranes were washed three times with TBS-T, incubated with the appropriate fluorescently labeled infrared secondary antibodies, washed again three times with TBS-T, and assessed using an Odyssey CLx Imager (LI-COR)[6],[15]. […]

[2] = Pharmacokinetic evaluation in mice; assay type: in vivo, C57BL/6J male mice; details: for exposure (AUCinf) / half-life (T1/2): intraperitoneal administration at 10 mg kg^−1
Text: For IP injections, dTAG-13 and dTAG^V-1 were formulated by dissolving into DMSO and then diluting with 20% solutol (Sigma): 0.9% sterile saline (Moltox) (w:v) with the final formulation containing 5% DMSO. […] Formulations were stable at room temperature for 7 days. For IV injections, dTAG-13 and dTAG^V-1 were formulated by dissolving into DMSO and then diluting with 5% solutol (Sigma): 0.9% sterile saline (Moltox) (w:v) with the final formulation containing 5% DMSO. All procedures for PK studies were compliant with ethical regulations for animal testing and research, and were approved by and performed in accordance with standards of the Institute Animal Care and Use Committee (IACUC) at Scripps Florida. Housing conditions for mice at Scripps Florida were as follows: lights on = 7 AM, lights off = 7 PM, average ambient temperature = 72 °F, and average humidity = 45%. PK was assessed in 8-week-old C57BL/6J male mice (Jackson Laboratory, #000664) with blood collected at 0.08, 0.25, 0.5, 1, 2, 4, 6, and 8 h (2 mg kg^−1 dTAG-13 intravenous (IV) tail vein, 10 mg kg^−1 dTAG-13 intraperitoneal (IP), and 2 mg kg^−1 dTAG^V-1 IV tail vein administrations) and 0.25, 0.5, 1, 2, 4, 6, 8, 24 and 48 h (2 mg kg^−1 dTAG^V-1 IP and 10 mg kg^−1 dTAG^V-1 IP administrations). Plasma was generated by centrifugation and plasma concentrations were determined by LC-MS/MS following the mass transition 49600à340 AMU. PK parameters were calculated using Phoenix WinNonlin to determine peak plasma concentration (Cmax), oral bioavailability (%F), exposure (AUC), half-life (t1/2), clearance (CL), and volume of distribution (Vd).

[3] = male, C57BL/6J, mouse, plasma, IP, 2 mg kg-1
[4] = male, C57BL/6J, mouse, plasma, IP, 10 mg kg-1
[5] = male, C57BL/6J, mouse, plasma, IV, 2 mg kg-1

T1 sequence (P62942 2-108 F37V limits assumed): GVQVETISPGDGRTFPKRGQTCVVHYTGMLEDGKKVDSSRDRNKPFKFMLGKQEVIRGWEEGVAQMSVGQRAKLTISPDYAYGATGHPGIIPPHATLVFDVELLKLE

FKBP12F36V-GFP degradation, immunoblot [1]: effectively degraded
AUCinf ([2]; IP, 10 mg kg-1): 6140 ng·h/mL
AUClast ([2]; IP, 10 mg kg-1): 5619 ng·h/mL
CL ([2]; IP, 10 mg kg-1): 28 mL/min/kg
Cmax ([2]; IP, 10 mg kg-1): 1263 ng/mL
T1/2 ([2]; IP, 10 mg kg-1): 2.41 h
Tmax ([2]; IP, 10 mg kg-1): 2.00 h
AUCinf ([2]; IV, 2 mg kg-1): 1253 ng·h/mL
AUClast ([2]; IV, 2 mg kg-1): 1242 ng·h/mL
CL ([2]; IV, 2 mg kg-1): 32.5 mL/min/kg
Cmax ([2]; IV, 2 mg kg-1): 2373 ng/mL
T1/2 ([2]; IV, 2 mg kg-1): 1.46 h
Tmax ([2]; IV, 2 mg kg-1): 0.08 h
Vss ([2]; IV, 2 mg kg-1): 1.8 L/kg
exposure (AUCinf) [2]: 6140 ng·h/mL
half-life (T1/2) [2]: 2.41 h
Compound: CC[C@H](C(=O)N1CCCC[C@H]1C(=O)O[C@H](CCc1ccc(OC)c(OC)c1)c1ccccc1OCC(=O)NCCCCCCOc1cccc2c1C(=O)N(C1CCC(=O)NC1=O)C2=O)c1cc(OC)c(OC)c(OC)c1 (some centres unmarked) [dTAG-13]

Compound: CC[C@H](C(=O)N1CCCC[C@H]1C(=O)O[C@H](CCc1ccc(OC)c(OC)c1)c1ccccc1OCC(=O)NCCCCCCC(=O)N[C@H](C(=O)N1C[C@H](O)C[C@H]1C(=O)N[C@@H](C)c1ccc(-c2scnc2C)cc1)C(C)(C)C)c1cc(OC)c(OC)c(OC)c1 [dTAG^V-1]
FKBP12F36V-GFP degradation, immunoblot [1]: effectively degraded
CL ([2]; IP, 2 mg kg-1): 10.7 mL/min/kg
CL ([2]; IP, 10 mg kg-1): 9.05 mL/min/kg
exposure (AUCinf) [2]: 18,517 h ng mL^−1
half-life (T1/2) [2]: 4.43 h
AUC(0-inf) [2, 3]: 3140 ng·h/mL
AUC(0-t) [2, 3]: 2240 ng·h/mL
half-life [2, 3]: 3.64 h
Cmax ([2]; male, C57BL/6J, mouse, plasma, IP, 2 mg kg-1, read-out: Cmax): 595 ng/mL
Tmax ([2]; male, C57BL/6J, mouse, plasma, IP, 2 mg kg-1, read-out: Tmax): 1.67 h
AUC(0-inf) [2, 4]: 18500 ng·h/mL
AUC(0-t) [2, 4]: 18100 ng·h/mL
half-life [2, 4]: 4.43 h
Cmax ([2]; male, C57BL/6J, mouse, plasma, IP, 10 mg kg-1, read-out: Cmax): 2120 ng/mL
Tmax ([2]; male, C57BL/6J, mouse, plasma, IP, 10 mg kg-1, read-out: Tmax): 2 h
AUC(0-inf) [2, 5]: 3330 ng·h/mL
AUC(0-t) [2, 5]: 3240 ng·h/mL
clearance [2, 5]: 10.1 mL/min/kg
half-life [2, 5]: 3.02 h
Cmax ([2]; male, C57BL/6J, mouse, plasma, IV, 2 mg kg-1, read-out: Cmax): 7780 ng/mL
Tmax ([2]; male, C57BL/6J, mouse, plasma, IV, 2 mg kg-1, read-out: Tmax): 0.08 h
Vd ([2]; male, C57BL/6J, mouse, plasma, IV, 2 mg kg-1, read-out: Vss): 0.56 L/kg

Reference: publication PMC7501296, “Rapid and direct control of target protein levels with VHL-recruiting dTAG molecules” (Nature Communications, 2020)
